# In patent US6566359B1, “2,4,6-trimethyl-1,4-dihydro-pyridine-3,5-dicarboxylic acid esters as neuroprotective drugs” (Board of Supervisors of Louisiana State University and …, priority 2002, dated 2003):
# Where a name gives a salt, the structure may show the parent alone.
# Tests used:
# [1] = Middle cerebral artery occlusion (MCA-O) stroke model, infarct volume by TTC; assay type: in vivo, C57BL/6 mice
# [2] = system: c-jun aminoterminal protein kinase (JNK); assay: PAF-mediated JNK activation in HEK-293 cells, immunocomplex kinase assay; assay type: cell-based, human; settings: PAF 100 nM
# Description: Experimental Protocol: HEK-293 cells (transformed primary human embryo kidney cells, ATCC# CRL-1573) were cultured to confluency in DMEM-10% FBS high-glucose medium (GIBCO-BRL, Rockville, Md). Cells were cultured in 6-well plates and were treated with PAF (100 nM) for 60 min or interleukin-1β (“IL-1β”; 10 ng/ml) for 30 min, and then frozen for later assays for JNK and ERK as described below. To test the effect of compounds of the LAU-0900 series, HEK-293 cells were treated for 30 min with various concentrations (from 10 nM to 1 μM) of the experimental LAU-0900 series compound before the addition of PAF or IL-1β. […]
# To measure the JNK activity, aliquots of 5 μg immunoprecipitates were incubated for 30 min at 30° C. using 10 μg GST-cJUN (Santa Cruz Biotechnology, Santa Cruz, Calif.) as substrate. […] The filter papers were washed twice with 10 mL per square 1% phosphoric acid, followed by one wash with water. ^32P on the filter paper was counted in a scintillation counter to quantify the phosphorylation of substrate proteins.
# human COX-2 promoter [3] = assay: IL-1β-induced COX-2 promoter-luciferase transcription in CV-1 cells; assay type: cell-based; settings: 100 nM compound, 10 nM IL-1β
# Description: (§1) To test the ability of LAU-0900 series compounds to inhibit COX-2 expression, a kidney cell line was transiently transfected with the 830-base-pair human COX-2 promoter construct (proximal to the transcription start site) fused to the luciferase gene as a reporter as described below.
# (§2) Transfection of CV-1 cells with human COX-2promoterfused with LUC: C V-1 Cells (African green monkey kidney cell line, ATCC # CCL-17) were grown in DMEM-F12 (GIBCO-BRL, Rockville, Md.) supplemented with 10% FBS (fetal bovine serum) in 6-well plates. At 80% confluence, the cells were transfected with 10 μg human COX-2 promoter-LUC construct (containing 830 base pairs of the human COX-2 promoter (donated by Dr. Stephen Prescot, Huntsman Cancer Institute, Salt Lake City, Utah) using a liposomal transfection reagent (DOTAP, Roche Diagnostics, Gmbh, Mannheim, Germany). Promoterless β-galactosidase construct (Promega, Madison, Wis.) was co-transfected to assess transfection efficiency. Three hours after transfection at 37° C., the medium was removed, and the cells were washed with phonsphate-buffered saline solution, pH 7.2 (PBS; Gibco-BRL, Rockville Md. The plates were further incubated at 37° C. in complete medium DMEM-F12 with 10% FBS for about 8-10 hr. Before the addition of the inducers of COX-2, PAF (100 nM) or IL-1β (10 ng/ml), the CV-1-transfected cells were serum-starved for 8 hr at 37° C. After the addition of the inducers, the cells were incubated for 8-10 hr at 37° C. Then the medium was removed, the cells were washed with PBS, harvested, and frozen at −80° C. until used for assays.
# (§3) To test the effectiveness of the LAU-0900 series compounds, the transfected cells were treated for 1 hr with 100 nM of various LAU-0900 series compounds before the addition of the inducers (either PAF or IL-1β, and the LAU-0900 compound remained in the medium throughout the incubation period.
# (§4) Luciferase assay of transfected CV-1 cells: Frozen cells were homogenized in 300 μl luciferase assay buffer (“ALL”, Analytical Luminescence Laboratory, San Diego, Calif.), and cellular debris was collected as a pellet by centrifugation at 2800×g for 20 min at 4° C. Supernatants (20-30 μl) were normalized to 1 μg/ml of total protein content, and were mixed with 70-80 μl ALL buffer. Reactions were initiated by injection of 100 μl of 1 mM luciferin (Sigma Chemical Co., St. Louis, Mo.). The relative light units were determined by using an ALL luminometer that recorded over 20-second intervals.
# human COX-2 promoter [4] = assay: PAF-induced COX-2 promoter-luciferase transcription in CV-1 cells; assay type: cell-based; settings: 100 nM compound, 100 nM PAF
# Description: as §1, §2, §3, §4
# ARPE-19 cells = assay: Oxidative stress-induced cell death (TNF + H2O2), Hoechst staining; assay type: cell-based, human; settings: TNF 10 ng/ml + H2O2 1.6 μM
# Description: To test the effectiveness of the LAU-0900 series compounds as inhibitors of oxidative stress-induced cell death, human retinal pigment epithelial cells in culture (ARPE-19 cells, ATCC #CRL-2302) were used. ARPE-19 cells were cultured to confluence in DMEM-10% FBS medium (Gibco-BRL). The cells were then divided into 11 groups. Nine groups were exposed overnight to […] of a test compound selected from LAU-0901, LAU-0903, LAU-0904, LAU-0905, LAU-0906, LAU-0907, LAU-0908, LAU-0909, and LAU-0910. The other two groups were control groups, and were not exposed to any test chemical. In the nine groups and in one control group, oxidative stress was triggered by the addition of a combination of tumor necrosis factor (“TNF”; 10 ng/ml) and hydrogen peroxide (“H2O2”; 1.6 μM). The second control group was not treated with TNF and H2O2.
# The amount of Hoeschst staining was least in the group treated with LAU-0901, and most in the group treated with LAU-0910.
# [5] = target: intracellular type PAF receptor (rat brain microsomal preparations) (Rattus norvegicus, UniProt P46002); assay: Competition for 3H-PAF binding to rat brain cortex microsomal membranes; settings: rat brain microsomal
# Chain of intracellular type PAF receptor (rat brain microsomal preparations) (P46002 whole entry): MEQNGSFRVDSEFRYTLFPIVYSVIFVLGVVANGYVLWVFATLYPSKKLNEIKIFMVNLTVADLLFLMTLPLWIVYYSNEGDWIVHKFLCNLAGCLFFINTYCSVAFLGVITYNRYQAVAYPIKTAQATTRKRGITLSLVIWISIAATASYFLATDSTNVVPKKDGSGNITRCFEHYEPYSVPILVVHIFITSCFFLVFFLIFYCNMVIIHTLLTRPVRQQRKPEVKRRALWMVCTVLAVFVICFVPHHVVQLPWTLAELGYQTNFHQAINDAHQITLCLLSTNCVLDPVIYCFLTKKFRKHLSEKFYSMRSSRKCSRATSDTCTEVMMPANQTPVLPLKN
# Description: (§5) Binding studies were performed on subcellular fractions of tissues obtained from rat brain cortex, according to procedures described in V. Marcheselli et al., “Distinct platelet-activating factor binding sites in synaptic endings and in intracellular membranes of rat cerebral cortex,” J. biol. Chem., vol. 265, pp. 9140-9145 (1990). Freshly dissected brain tissues were homogenized in ice-cold buffer (50 mM Tris-HCl, 2 mM EGTA, 5 mM PMSF, 250 mM sucrose, 7.4 pH). Subcellular fractions were obtained by differential centrifugation. The microsomal fraction was sedimented after 100,000×g for 1 hour centrifugation. In addition, three cell lines from Chinese hamster ovary (CHO) with varying expression of PAF receptors, CHO-A, CHO-B, and CHO-C cells (from Dr. Takao Shiizu, University of Tokyo, Tokyo, Japan) were cultured to the fourth-passage cells. These cells were cultured to confluence, then detached from their culturing flasks, and pelleted by rapid centrifugation (3,000 rpm, 10 min). Cellular pellets were homogenized in ice-cold buffer as described above. Freshly obtained microsomal fractions or CHO cellular homogenates were utilized for saturation, displacement, and competition studies using ^3H-PAF as the hot ligand, unlabeled-PAF to detect non-specific binding, and a LAU-0900 series compound to displace by competition ^3H-PAF bound to a receptor.
# [6] = system: CHO-C cells (do not exp PAF-R); assay: Competition for 3H-PAF binding to CHO-C cell homogenates; settings: CHO-C homogenates
# Description: as §5
# (§6) See B. Liu et al., “Implication of protein kinase C alpha in PAF-stimulated phospholipase D Activation in Chinese hamster ovary (CHO) cells expressing PAF receptor,” Biochem. Biophys. Res. Commun., vol.214, pp.418-423 (1995). […] Both the constants of inhibition (KI) and 50% of inhibitory activity (IC50) were significant at a low concentration of LAU-0903.
# [7] = target: T1, cell-surface-type PAF receptor over-expressed in CHO-B cells (Cavia porcellus, UniProt P21556); assay: Competition for 3H-PAF binding to CHO-B cell homogenates; settings: CHO-B homogenates
# T1 construct: expressed in transfected cells; host or cells: Chinese hamster ovary cells: CHO-B (high expression) and CHO-A (mild expression), used as cell homogenates
# T1 sequence (P21556 whole entry): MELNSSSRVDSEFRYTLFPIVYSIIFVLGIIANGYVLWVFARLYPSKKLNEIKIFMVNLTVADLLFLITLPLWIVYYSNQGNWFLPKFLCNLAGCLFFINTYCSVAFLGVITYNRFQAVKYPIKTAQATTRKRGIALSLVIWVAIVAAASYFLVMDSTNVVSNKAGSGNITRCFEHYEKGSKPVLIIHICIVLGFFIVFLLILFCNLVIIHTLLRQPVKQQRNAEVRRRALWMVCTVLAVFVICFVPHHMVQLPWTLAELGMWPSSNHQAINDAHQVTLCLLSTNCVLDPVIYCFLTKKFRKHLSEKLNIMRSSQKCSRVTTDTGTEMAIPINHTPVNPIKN
# Description: as §5, §6
# [8] = known LD50; cited from earlier work
# [9] = 30 mg/kg 1 hr after reperfusion following 1 hr of MCA-O
smiles,measurement,setting,value
"CC1=C(C(=O)OCCOc2ccc(Cl)c(Cl)c2)C(C)C(C(=O)OC(CN2CCOCC2)CN2CCOCC2)=C(C)N1 (centres unmarked) [LAU-0901, 2,4,6-Trimethyl-1,4-dihydro-pyridine-3,5-dicarboxylic acid 5-[2-(3,4-dichlorophenoxy)]ethyl ester 3-[1,3-di-(4-morpholinyl)-2-propyl-1-esterdihydrochloride]",Reduction of infarcted volume,[1]; [9],40%
same,Reduction of infarcted volume,"[1]; 30 mg/kg at the onset of MCA-O, 1 hr MCA-O, killed 24 hr later",40%
same,Reduction of infarcted volume,"[1]; 30 mg/kg intraperitoneally 1 h before MCA-O, 1 hr MCA-O, killed 24 hr after",55%
same,Lowest concentration inhibiting PAF-induced JNK,[2],≤ 10 nM
"COC(=O)C1=C(C)NC(C)=C(C(=O)OCCCSc2ccc(F)cc2)C1C (centres unmarked) [LAU-0904, 2,4,6-Trimethyl-1,4-dihydro-pyridine-3,5-dicarboxylic acid 5-[3-(4-fluorophenysulfanyl)]-propyl-1-ester 3-methyl ester]",Reduction of infarcted volume,[1]; [9],40%
"CCCOc1ccc(SCCCOC(=O)C2=C(C)NC(C)=C(C(=O)OC)C2C)cc1 (centres unmarked) [LAU-0907, 2,4,6-Trimethyl-1,4-dihydro-pyridine-3,5-dicarboxylic acid 5-[3-(4-propoxyphenylsulfanyl)]-propyl-1-ester 3-methyl ester]",Inhibition of COX-2 transcription induced by IL-1β,human COX-2 promoter [3],inhibited
same,Inhibition of COX-2 transcription induced by PAF,human COX-2 promoter [4],inhibited
COC(=O)C1=C(C)NC(C)=C(C(=O)OCCCOc2ccc(/C=C/C(C)=O)cc2)C1C (centres unmarked) [LAU-0908],Inhibition of COX-2 transcription induced by IL-1β,human COX-2 promoter [3],inhibited
same,Inhibition of COX-2 transcription induced by PAF,human COX-2 promoter [4],inhibited
"CCCCOc1ccc(OCCCOC(=O)C2=C(C)NC(C)=C(C(=O)OC)C2C)cc1 (centres unmarked) [LAU-0910, 2,4,6-Trimethyl-1,4-dihydropyridine-3,5-dicarboxylic acid 3-[3-(4-butoxyphenoxy)propyl]ester 5-methyl ester]",Amount of Hoechst staining (cytoprotection),ARPE-19 cells,most
"CCCC(=O)c1ccc(OCCCOC(=O)C2=C(C)NC(C)=C(C(=O)OC)C2C)cc1 (centres unmarked) [LAU-0913, 2,4,6-Trimethyl-1,4-dihydro-pyridine-3,5-dicarboxylic acid 5-[3-(4-butyryl-phenoxy)-propyl]1-ester 3-methyl ester]",Inhibition of COX-2 transcription induced by IL-1β,human COX-2 promoter [3],inhibited
same,Inhibition of COX-2 transcription induced by PAF,human COX-2 promoter [4],inhibited
"CCCCCCCCCCCCCCCCOC[C@H](COP(=O)([O-])OCC[N+](C)(C)C)OC(C)=O [^3H-PAF, ^3H-platelet-activating factor, reference compound]",Kd,[5]; high-affinity binding site (H),0.00205 nM
same,Kd,[5]; low-affinity binding site (L),30 nM
same,Kd 3H-PAF,[6],No binding
same,Kd,[7],0.15 nM
CC(=O)Nc1ccc(O)cc1 [acetaminophen],LD50,[8],560 mg/kg
